# Experiments:
# Conditions in all cases: 72 h
# [1] = test system: myeloid leukemia patient primary cells Pat.11; test: cell viability (% survival relative to DMSO control); higher = less cytotoxic
# In short: (§1)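 Seventy compounds were pre-printed on 384-well plates at five tenfold concentrations between 1 and 10,000 nM, in duplicate. Thawed mononuclear cells purified by Ficoll from AML or CML patients were added at 10,000 cells/well in RPMI 1640 with 10% FBS for 72 h. Viability by CellTiter-Glo was normalised to DMSO and 10 μM proteasome-inhibitor wells. Where stated, area under the curve was taken from log-logistic fits made with the drc and PharmacoGx R packages, each fit having four parameters.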
# [2] = test system: myeloid leukemia patient primary cells Pat.13; test: as above
# In short: as §1
# [3] = test system: myeloid leukemia patient primary cells Pat.7; test: as above
# In short: as §1
# [4] = test system: myeloid leukemia patient primary cells Pat.13; test: area under dose-response curve (viability, 1 nM-10 uM) (fraction (0-1)); higher = more sensitive
# Protocol: (§2)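 AUC (0–1, higher = more sensitive) of the 5-point dose–response (1 nM–10 µM, 72 h, CellTiter-Glo) in primary AML/CML patient mononuclear cells. 0.030103 is the floor for inactive compounds.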
# [5] = test system: myeloid leukemia patient primary cells Pat.14; test: as above
# Protocol: as §2
# [6] = test system: myeloid leukemia patient primary cells Pat.2; test: as above
# Protocol: as §2
# [7] = test system: myeloid leukemia patient primary cells Pat.3; test: as above
# Protocol: as §2
# [8] = test system: myeloid leukemia patient primary cells Pat.6; test: as above
# Protocol: as §2
SMILES,cell viability ([1]; 1 nM) [%],cell viability ([1]; 10 nM) [%],cell viability ([1]; 100 nM) [%],cell viability ([1]; 1000 nM) [%],cell viability ([1]; 10000 nM) [%],cell viability ([2]; 1 nM) [%],cell viability ([2]; 10 nM) [%],cell viability ([2]; 100 nM) [%],cell viability ([2]; 1000 nM) [%],cell viability ([2]; 10000 nM) [%],cell viability ([3]; 1 nM) [%],cell viability ([3]; 10 nM) [%],cell viability ([3]; 100 nM) [%],cell viability ([3]; 1000 nM) [%],cell viability ([3]; 10000 nM) [%],area under dose-response curve [4],area under dose-response curve [5],area under dose-response curve [6],area under dose-response curve [7],area under dose-response curve [8]
CC12CCC(O)CC1CCC1C2CCC2(C)C(C3=CC(=O)OC3)CCC12O (centres undefined) [Digitoxigenin],99.8,94.1,94.8,31.9,9.33,> 100,64.8,91.8,15,4.96,94.8,91.8,67.9,> 100,> 100,0.324,0.305,0.27,0.601,0.26
Sc1ncnc2nc[nH]c12 [6-mercaptopurine],> 100,98.2,97.6,97.9,98.1,79.6,88.3,84.9,84.9,93.2,> 100,78.2,66.1,93.3,88.8,< 0.0301,< 0.0301,< 0.0301,0.44,< 0.0301
CCOC(=O)N1c2ccc(C(F)(F)F)cc2[C@@H](N(Cc2cc(C(F)(F)F)cc(C(F)(F)F)c2)C(=O)OC)C[C@H]1CC [Torcetrapib],96.7,85.1,99.1,> 100,97.5,> 100,71.5,92.1,81.1,48.2,84.5,58.4,> 100,50.5,30,0.0668,0.0394,< 0.0301,0.0719,0.0345
Nc1ccn([C@@H]2O[C@H](CO)[C@@H](O)[C@@H]2O)c(=O)n1 [Cytarabine],95.7,93.6,> 100,89.3,41.1,91.9,68.8,85.2,60.1,9.9,> 100,50.7,59.9,12.8,4.95,0.188,0.152,0.077,0.647,0.0602
C[C@]12O[C@H](C[C@]1(O)CO)n1c3ccccc3c3c4c(c5c6ccccc6n2c5c31)CNC4=O [Lestaurtinib],96.4,74.7,41.8,56.9,1.92,89,46.6,48.2,57.7,1.29,88.3,62.3,> 100,63.1,< 0,0.23,0.261,0.232,0.363,0.096
Clc1ccc(COC(Cn2ccnc2)c2ccc(Cl)cc2Cl)cc1 (centres undefined) [Econazole],89.9,92.9,99.9,88.6,73.3,77.8,95,70.2,75,60.6,72.2,> 100,93,63.4,< 0,–,0.138,< 0.0301,0.173,0.0776
CCN(CC)CCN(Cc1ccc(-c2ccc(C(F)(F)F)cc2)cc1)C(=O)Cn1c(SCc2ccc(F)cc2)nc(=O)c2c1CCC2 [Darapladib],87.2,98.3,85.3,88.2,0.357,74.1,80.5,74.2,71.2,< 0,63.7,74.4,40.1,5.93,< 0,0.154,0.241,0.143,0.211,0.137
Cc1noc2c1-c1ccccc1C(c1ccc(Cl)cc1)=N[C@H]2CC(N)=O [CPI-0610],> 100,93,93.6,54.3,51.8,90.2,95.2,87.3,52.2,46.9,> 100,97.1,84.1,60.5,58,0.191,–,0.192,0.378,–
COc1c(C)c2c(c(O)c1C/C=C(\C)CCC(=O)O)C(=O)OC2 [Mycophenolic acid],88.3,> 100,91,> 100,78.1,61,90.7,73.5,68.1,63.1,52.5,94.8,56.3,> 100,99.3,–,< 0.0301,< 0.0301,0.0922,< 0.0301
CC(Cc1ccc(O)c(O)c1)C(C)Cc1ccc(O)c(O)c1 (centres undefined) [Masoprocol],94.1,> 100,98.8,89.9,80,93.2,97.5,98.5,70.5,56.2,> 100,85.3,89,31.9,2.01,0.0768,–,–,0.299,0.15
C[C@H]1O[C@@H](O[C@H]2[C@@H](O)C[C@H](O[C@H]3[C@@H](O)C[C@H](O[C@H]4CC[C@@]5(C)[C@H](CC[C@@H]6[C@@H]5C[C@@H](O)[C@]5(C)[C@@H](C7=CC(=O)OC7)CC[C@]65O)C4)O[C@@H]3C)O[C@@H]2C)C[C@H](O)[C@@H]1O [Digoxin],> 100,97.6,48.8,12.4,7.54,95.8,99,88.5,5.75,3.42,76.9,86.8,69,89,> 100,0.384,0.363,0.346,0.624,0.328
